# Results reported in article PMC6628017, “Advanced Glycation End-Products Can Activate or Block Bitter Taste Receptors” (Nutrients, 2019).
# Entries after “also recorded” stand apart in the source; their conditions may differ. Where a name gives a salt, the structure may show the parent alone. Read-outs that look alike come from different tables or passages of the source.
# Experiments:
# [1] = molecular target: T1, T2R4 (Homo sapiens, UniProt Q9NYW5); settings: cited from earlier work
# T1 sequence (Q9NYW5 1-299): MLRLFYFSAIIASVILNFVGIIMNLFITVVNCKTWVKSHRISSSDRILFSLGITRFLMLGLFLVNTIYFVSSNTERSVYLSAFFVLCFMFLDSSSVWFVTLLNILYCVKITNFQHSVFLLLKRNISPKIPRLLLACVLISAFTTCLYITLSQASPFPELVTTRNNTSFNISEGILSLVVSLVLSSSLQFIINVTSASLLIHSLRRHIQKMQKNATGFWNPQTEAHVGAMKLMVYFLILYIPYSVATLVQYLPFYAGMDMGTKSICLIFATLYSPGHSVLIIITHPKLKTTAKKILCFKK
# [2] = molecular target: T2, T2R20 (Homo sapiens, UniProt P59543); experiment: Calcium mobilization assay, HEK293T cells stably expressing T2R20; format: cell-based; settings: for Activation of T2R20 by compound alone: 100 μM; for EC50: 3–200 μM, ± standard deviation, read-out: EC50, activation of T2R20 calcium mobilization
# T2 sequence (P59543 1-309): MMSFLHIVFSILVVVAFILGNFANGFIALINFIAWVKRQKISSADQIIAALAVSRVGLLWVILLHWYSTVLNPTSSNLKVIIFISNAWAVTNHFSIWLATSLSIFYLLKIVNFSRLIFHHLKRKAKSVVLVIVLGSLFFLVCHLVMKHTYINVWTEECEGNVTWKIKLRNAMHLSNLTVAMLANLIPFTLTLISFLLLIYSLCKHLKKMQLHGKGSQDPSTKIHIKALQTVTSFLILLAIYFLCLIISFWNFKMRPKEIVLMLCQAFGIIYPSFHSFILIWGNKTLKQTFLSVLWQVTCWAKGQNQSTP
# From the text: (§1) Human Embryonic Kidney (HEK293T) cell line was purchased from ATCC (Manassas, VA, USA). N-terminal FLAG epitope tagged human TAS2R4, TAS2R14, and TAS2R20 genes were codon-optimized for expression in mammalian cells and cloned into the KpnI-NotI site of pcDNA 3.1/Hygro (+) expression vector, and they were commercially synthesized (GenScript Inc., Piscataway, MA, USA) as previously described in Reference. We generated stable HEK293T cells expressing the above T2Rs in the selection medium containing 200 μg/mL hygromycin as described previously in References.
# (§2) Calcium mobilization assays on each T2R expressing stable cells were performed by incubation with Fluo-4 NW dye containing probenecid (2.5 mM) for 35 min at 37 °C, followed by 35 min at room temperature. We then treated the cells either with the putative agonist alone or in combination with the AGE compound. To elucidate the action of AGEs on T2Rs, the cells were initially treated with a fixed concentration (100 μM). To determine IC50 for AGE compounds, the agonist concentration was kept constant whilst the AGE compound was added in a concentration dependent manner (3 μM to 200 μM). To determine EC50 for the agonists, we used a concentration range from 3 μM to 200 μM. The Flexstation-3 automated fluorescence microplate reader (Molecular devices) was used to measure the calcium at 525 nm emission, followed by excitation at 494 nm. ΔRFU (relative fluorescence units) were calculated by the system based on the difference between the maximum response and minimum response. We used HEK293T cells as the control for baseline subtraction. The data were collected from at least three independent experiments performed in triplicates and analyzed using GraphPad Prism V. 6.0 (GraphPadSoftware, La Jolla, CA, USA).
# [3] = molecular target: T1, T2R4; experiment: Calcium mobilization assay, HEK293T cells stably expressing T2R4; format: cell-based; settings: for Calcium mobilization by compound alone, T2R4 cells: 100 μM, compared to basal; for IC50: 3–200 μM AGE with quinine 1 mM, ± standard deviation, read-out: IC50, inhibition of quinine-activated T2R4 calcium mobilization
# From the text: as §1, §2
# [4] = molecular target: T3, T2R14 (Homo sapiens, UniProt Q9NYV8); experiment: Calcium mobilization assay, HEK293T cells stably expressing T2R14; format: cell-based; settings: for Calcium response by compound alone, T2R14 cells: 100 μM; for Inhibition of DPH-activated T2R14 calcium mobilization: 3–200 μM AGE with DPH 500 μM
# T3 sequence (Q9NYV8 1-317): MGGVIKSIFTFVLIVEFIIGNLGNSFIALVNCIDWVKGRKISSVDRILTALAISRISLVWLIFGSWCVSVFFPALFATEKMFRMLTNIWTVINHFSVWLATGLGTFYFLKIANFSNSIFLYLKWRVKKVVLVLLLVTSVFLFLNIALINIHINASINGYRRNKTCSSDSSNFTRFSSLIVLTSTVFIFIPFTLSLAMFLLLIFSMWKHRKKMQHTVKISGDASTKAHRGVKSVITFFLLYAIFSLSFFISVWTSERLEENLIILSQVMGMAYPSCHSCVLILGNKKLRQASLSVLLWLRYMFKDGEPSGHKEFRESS
# From the text: as §1, §2
# [5] = Solubility in calcium assay buffer; format: physicochemical; settings: 1X HBSS, 20 mM HEPES
# From the text: The cell-culture medium was composed of Dulbecco’s modified Eagle’s medium-F12 (Gibco, Life technologies, Carlsbad, CA, USA) supplemented with 10% heat-inactivated fetal bovine serum (Sigma, Burlington, MA, USA) and 1% penicillin-streptomycin (Gibco, Life technologies). We used hygromycin (Sigma Aldrich, Oakville, ON, Canada) in the selection medium to generate stable cells. All bitter compounds (quinine hydrochloride, diphenhydramine or DPH, and cromolyn) were purchased from Sigma Aldrich (Oakville, ON, Canada). We purchased glyoxal-derived lysine dimer (GOLD) and Nε-Carboxymethyl-L-lysine (CML) from PolyPeptide Laboratories (Strasbourg, France). All the compounds were freshly prepared using calcium assay buffer (1X HBSS, 20 mM HEPES) on the day of the experiment. Calcium sensitive dye Fluo-4 NW kit was purchased from Life technologies (Carlsbad, CA USA).
compound,measurement,setting,value
"NCCCC[C@@H](C(=O)O)N(CC(=O)O)CC(=O)O [BCML, Nα, Nα-bis(carboxymethyl)-L-lysine]",IC50,"[1]; read-out: IC50 against quinine, T2R4 antagonist",0.06 µM
"N[C@@H](CCCCNCC(=O)O)C(=O)O [CML, Nε-Carboxymethyl-L-lysine]",Activation of T2R20 by compound alone,[2],activated T2R20
same,EC50,[2],65.3 ± 17.8 µM
same,"Calcium mobilization by compound alone, T2R4 cells",[3],did not cause a significant increase in calcium mobilization
same,IC50,[3],32.6 ± 9.5 µM
same,"Calcium response by compound alone, T2R14 cells",[4],did not show any calcium response
same,Inhibition of DPH-activated T2R14 calcium mobilization,[4],no significant effect in suppressing the DPH activation of T2R14
"NC(CCCCn1cc[n+](CCCCC(N)C(=O)O)c1)C(=O)O (centres unmarked) [GOLD, glyoxal-derived lysine dimer]",Activation of T2R20 by compound alone,[2],activated T2R20
same,EC50,[2],79.3 ± 29.2 µM
same,"Calcium mobilization by compound alone, T2R4 cells",[3],did not cause a significant increase in calcium mobilization
same,IC50,[3],10.5 ± 4.7 µM
same,"Calcium response by compound alone, T2R14 cells",[4],did not show any calcium response
same,Inhibition of DPH-activated T2R14 calcium mobilization,[4],did not generate a reverse sigmoid curve to determine the IC50 value; also recorded: no dose-dependent inhibition observed
"CC(NCCCC[C@H](N)C(=O)O)C(=O)O (some centres unmarked) [Nε-Carboxyethyl Lysine (CEL), Nε-Carboxyethyl Lysine]",Solubility in calcium assay buffer,[5],insoluble or only slightly soluble
"O=C(O)c1cc(=O)c2c(OCC(O)COc3cccc4oc(C(=O)O)cc(=O)c34)cccc2o1 [cromolyn, reference compound]",EC50,[2],50.7 ± 15.1 µM
"C=C[C@H]1C[N@@]2CC[C@H]1C[C@H]2[C@H](O)c1ccnc2ccc(OC)cc12 [quinine, quinine hydrochloride]",EC50,[1]; agonist,1000 µM
Pentosidine,Solubility in calcium assay buffer,[5],insoluble or only slightly soluble
